Reference: ChEMBL document CHEMBL1201862, “PubChem BioAssay data set” (2004)
Activity calls are given as the source filed them.

Experiments:
[1] = molecular target: T1, RNA-binding protein pos-1 (Caenorhabditis elegans, UniProt G5EF15); assay: disruptors of C. elegans POS-1 RNA interaction – biochemical, fluorescence polarization, dose response (AID 1964);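 also: purified POS-1 fused to maltose binding protein made in E. coli; potency of compounds blocking POS-1 binding to fluorescent RNA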
T1 sequence (G5EF15 whole entry): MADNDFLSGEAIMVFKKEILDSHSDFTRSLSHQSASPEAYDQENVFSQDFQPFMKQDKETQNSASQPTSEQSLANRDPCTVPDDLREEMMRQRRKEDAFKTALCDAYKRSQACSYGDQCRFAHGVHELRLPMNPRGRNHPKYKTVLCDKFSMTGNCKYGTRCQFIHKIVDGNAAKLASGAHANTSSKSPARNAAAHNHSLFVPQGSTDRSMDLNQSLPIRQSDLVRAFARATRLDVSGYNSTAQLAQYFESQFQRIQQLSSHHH

[2] = molecular target: T2, Zinc finger protein mex-5 (Caenorhabditis elegans, UniProt Q9XUB2); assay: potency of MEX-5 RNA-binding blockers – biochemical, C. elegans, fluorescence polarization, dose response (AID 1960)
T2 sequence (Q9XUB2 whole entry): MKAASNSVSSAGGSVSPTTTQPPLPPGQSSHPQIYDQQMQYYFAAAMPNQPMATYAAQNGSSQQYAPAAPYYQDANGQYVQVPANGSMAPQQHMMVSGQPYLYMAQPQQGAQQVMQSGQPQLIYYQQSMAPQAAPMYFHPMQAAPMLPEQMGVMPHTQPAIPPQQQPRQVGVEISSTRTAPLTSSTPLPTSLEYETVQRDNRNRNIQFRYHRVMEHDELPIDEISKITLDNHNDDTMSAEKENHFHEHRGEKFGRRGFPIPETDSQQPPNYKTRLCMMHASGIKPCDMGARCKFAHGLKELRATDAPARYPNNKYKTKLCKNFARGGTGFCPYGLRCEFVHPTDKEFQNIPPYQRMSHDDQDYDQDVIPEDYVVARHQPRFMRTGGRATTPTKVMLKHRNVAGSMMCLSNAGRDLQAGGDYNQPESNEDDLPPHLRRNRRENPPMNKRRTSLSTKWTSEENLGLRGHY

Bcl-2-related protein A1 = molecular target: T3, Bcl-2-related protein A1 (Mus musculus, UniProt Q07440); format: functional;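 also: confirmatory dose–response counterscreen on Bfl-1, used to check hits from a UBC13 polyubiquitin inhibitor campaign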
T3 sequence (Q07440 whole entry): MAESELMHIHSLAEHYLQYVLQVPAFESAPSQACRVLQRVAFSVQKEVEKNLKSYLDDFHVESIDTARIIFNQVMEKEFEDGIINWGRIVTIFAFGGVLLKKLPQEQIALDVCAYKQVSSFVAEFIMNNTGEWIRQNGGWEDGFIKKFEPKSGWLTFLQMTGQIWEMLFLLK

[3] = molecular target: T4, Ubiquitin-conjugating enzyme E2 N (Homo sapiens, UniProt P61088); format: functional
T4 sequence (P61088 whole entry): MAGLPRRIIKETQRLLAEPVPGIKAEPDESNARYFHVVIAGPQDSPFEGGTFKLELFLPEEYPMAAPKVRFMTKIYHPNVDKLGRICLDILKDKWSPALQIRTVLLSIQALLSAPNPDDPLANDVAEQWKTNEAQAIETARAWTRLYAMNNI

[4] = molecular target: T4, Ubiquitin-conjugating enzyme E2 N; format: functional; remark: listed apart in the source
[5] = Luminescence Cell-Based Dose Retest to Confirm Inhibitors of Cancer Stem Cells. [Related pubchem assays (depositor defined):AID2717, AID2721]; format: functional; details: Homo sapiens
cells = format: functional
Nonstructural protein 1 = Nonstructural protein 1 (Influenza A virus, UniProt Q194T2); format: functional, Influenza A virus (A/California/07/2009(H1N1))
Sequence of Nonstructural protein 1 (Q194T2 whole entry): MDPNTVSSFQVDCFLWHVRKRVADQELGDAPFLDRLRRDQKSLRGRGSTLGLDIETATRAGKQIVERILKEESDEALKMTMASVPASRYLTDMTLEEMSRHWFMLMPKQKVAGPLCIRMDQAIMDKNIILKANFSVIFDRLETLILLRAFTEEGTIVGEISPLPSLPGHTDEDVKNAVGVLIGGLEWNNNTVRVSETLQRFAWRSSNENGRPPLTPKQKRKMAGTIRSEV

Cytochrome P450 2C19 = Cytochrome P450 2C19 (Homo sapiens, UniProt P33261); assay: Cytochrome panel assay with activity outcomes. Panel member name: p450-cyp2c19 Compounds with AC50 equal or less than 10 uM are considered active; format: functional; details: read-out: AC50
Sequence of Cytochrome P450 2C19 (P33261 whole entry): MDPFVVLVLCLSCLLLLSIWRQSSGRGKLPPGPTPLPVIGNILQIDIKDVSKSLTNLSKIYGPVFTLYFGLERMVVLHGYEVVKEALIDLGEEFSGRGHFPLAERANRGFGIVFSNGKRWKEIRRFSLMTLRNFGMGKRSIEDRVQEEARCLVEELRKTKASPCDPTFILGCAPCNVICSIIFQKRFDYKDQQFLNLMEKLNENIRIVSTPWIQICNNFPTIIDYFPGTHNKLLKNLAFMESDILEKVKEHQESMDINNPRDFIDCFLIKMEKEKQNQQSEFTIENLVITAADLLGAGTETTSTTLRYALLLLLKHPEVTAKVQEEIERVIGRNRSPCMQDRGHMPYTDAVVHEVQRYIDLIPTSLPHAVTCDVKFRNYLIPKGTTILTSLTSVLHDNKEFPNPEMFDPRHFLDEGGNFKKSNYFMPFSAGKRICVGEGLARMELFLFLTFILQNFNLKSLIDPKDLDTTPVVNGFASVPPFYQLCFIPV

[6] = molecular target: T5, Rac GTPase-activating protein 1 (Homo sapiens, UniProt Q9H0H5); assay: blockers of MgcRacGAP-driven Rac1 GTP hydrolysis – biochemical, ADP Hunter fluorescence, primary and confirmatory, confirmation (AID 624330); format: functional
T5 sequence (Q9H0H5 whole entry): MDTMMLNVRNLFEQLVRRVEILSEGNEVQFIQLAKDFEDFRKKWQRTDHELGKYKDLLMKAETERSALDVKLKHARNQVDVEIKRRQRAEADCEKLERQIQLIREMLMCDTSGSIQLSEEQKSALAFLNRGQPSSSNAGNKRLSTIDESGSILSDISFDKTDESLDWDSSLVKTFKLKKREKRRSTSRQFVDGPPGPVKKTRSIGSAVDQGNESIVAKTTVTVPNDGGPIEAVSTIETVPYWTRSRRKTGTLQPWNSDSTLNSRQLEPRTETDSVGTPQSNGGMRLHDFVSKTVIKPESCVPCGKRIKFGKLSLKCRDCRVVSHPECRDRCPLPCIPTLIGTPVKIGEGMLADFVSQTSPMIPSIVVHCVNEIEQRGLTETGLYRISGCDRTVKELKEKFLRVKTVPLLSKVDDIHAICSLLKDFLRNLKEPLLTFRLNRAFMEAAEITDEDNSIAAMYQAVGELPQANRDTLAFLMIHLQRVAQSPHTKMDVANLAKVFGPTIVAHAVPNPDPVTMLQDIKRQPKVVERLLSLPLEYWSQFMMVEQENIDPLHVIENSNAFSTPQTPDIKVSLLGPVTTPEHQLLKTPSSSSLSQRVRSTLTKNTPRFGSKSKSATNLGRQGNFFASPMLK

[7] = blockers of HIV-1 envelope-mediated cell-cell fusion – cherry-pick, dose response (AID 652057); format: functional, cell-based
[8] = HIV-1 AD8 envelope cell-cell fusion blockers – cherry-pick, dose response (AID 652062); format: functional, cell-based;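 also: luciferase signal from cell-cell fusion driven by HIV-1 clade B AD8 Env; potency is for inhibitors of fusion seen as a drop in luminescence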
[9] = viability of PTEN-deleted HCT116 cells – cell-based, HCT116 PTEN knockout, dose response (AID 1047); format: functional;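 also: HCT116 colon tumor cells with PTEN knocked out; cells exposed to compound for 60 hours before readout; potency for loss of cell viability measured by luminescence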
[10] = viability of HCT116 lacking mutant beta-catenin – cell-based, human colon tumor, dose response (AID 1045); format: functional;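 also: HCT116 colon tumor cells with beta catenin knocked out; cells exposed to compound for 60 hours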
[11] = Trypanosoma cruzi growth suppression in host cells – NIH3T3 host cells, beta-gal luminescence, confirmation (AID 2044); format: functional, cell-based;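 also: intracellular parasites grown in NIH/3T3 mouse fibroblasts as host cells; luminescent beta-galactosidase reporter signal from transgenic T. cruzi replicating inside host cells; inhibitors lower the luminescence signal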
[12] = NIH3T3 cell viability loss – ATP luminescence, mouse fibroblasts, counter-screen, dose response (AID 2010); format: functional, cell-based;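 also: cells exposed to compound for about 90 hours before reading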
[13] = luciferase reporter signal suppression in cells – H4 neuroglioma cells, luminescence, dose response (AID 1990); format: functional, cell-based
[14] = Luminescence Cell-Based Dose Response HTS to Identify Inhibitors of 5'UTR Stem-Loop Driven Prion Protein mRNA Translation in H4 Neuroglioblastoma Cells. [Related pubchem assays: 1827 (Project Summary), 1813 (Primary HTS)]; format: functional
[15] = alpha-synuclein stem-loop luciferase translation blockers – H4 neuroglioma cells, luminescence, confirmation (AID 1988); format: functional, cell-based

## Cc1nn(C(C)C(=O)N2CCOCC2)c(=O)c2nn(-c3ccccc3)c(C)c12 (stereo unspecified)
[1]
  EC50: > 300 µM (not active)
[2]
  EC50: > 300 µM (not active)

## CCc1ccc(NC(=O)/C(C#N)=C/c2cc3ccc(C)cc3nc2N2CCOCC2)cc1
[1]
  EC50: 47.9 µM (active)
[2]
  EC50: 113 µM (active)

## CCN=C(S)N=Nc1c(O)[nH]c2ccc(C(C)C)cc12
Bcl-2-related protein A1
  IC50: > 20 µM (inactive)
[3]
  IC50: 6.7 µM (active)
[4]
  IC50: 2.49 µM (active)

## COCCN=C(S)N=Nc1c(O)[nH]c2c(C)cc(C)cc12
Bcl-2-related protein A1
  IC50: > 20 µM (inactive)
[3]
  IC50: 6.28 µM (active)
[4]
  IC50: 0.561 µM (active)

## O=C(CCCCn1c(=O)c2ccccc2n(Cc2ccccc2F)c1=O)NC1CCN(Cc2ccccc2)CC1
Bcl-2-related protein A1
  IC50: > 20 µM (inactive)
[3]
  IC50: 11.3 µM (active)
[4]
  IC50: 5.47 µM (active)

## COc1ccc(-c2sc3ccccc3c2-c2ccc(OCCN3CCOCC3)cc2)cc1
[5]
  AC50: 0.842 µM (active)
Bcl-2-related protein A1
  IC50: > 20 µM (inactive)
[3]
  IC50: 15.1 µM (active)
[4]
  IC50: > 20 µM (inactive)

## Cc1cccc(NC(=O)c2cc3ccccc3o2)c1
cells
  IC50: 40.5 µM (active)

## CCOC(=O)N/N=C\c1ccc([N+](=O)[O-])s1
cells
  IC50: 34 µM (active)

## CCNc1nc(NCC)nc(N(C)N)n1
Nonstructural protein 1
  IC50: 12.7 µM (active)
Cytochrome P450 2C19
  AC50: 0.00141 µM (inconclusive)

## C#CCOCCOCCOCCNc1nc(N2CCN(C(=O)[C@H](CCCCN)n3cc(CN)nn3)CC2)nc(N2CCN(C(=O)[C@H](CCC(=O)O)n3cc([C@@H](N)CCCCN)nn3)CC2)n1
Bcl-2-related protein A1
  IC50: > 20 µM (inactive)
[3]
  IC50: 2.85 µM (active)
[4]
  IC50: 2.79 µM (active)
[6]
  IC50: 190 µM (active)

## CC1(C)SC2C(C(=O)O)N=C(Cc3ccccc3)N2C1C(=O)O (stereo unspecified)
Nonstructural protein 1
  IC50: 12.2 µM (active)

## O=C(CNCc1ccccn1)Nc1cc(S(=O)(=O)N2CCCCC2)ccc1Cl
Nonstructural protein 1
  IC50: 6.83 µM (active)

## C=CCOc1ccc(CNc2ccc(NC(=O)CCC)cc2)cc1OCC
Nonstructural protein 1
  IC50: > 100 µM (active)

## CN(C)c1ccc(/C=C2\N=C(C(C)(C)C)OC2=O)cc1
[1]
  EC50: 7.17 µM (active)
[2]
  EC50: 22.3 µM (inconclusive)
cells
  IC50: 11.3 µM (active)

## Cc1ccc(/C=N/NC(=O)c2ccncc2)o1
cells
  IC50: 1.18 µM (active)

## CCOC(=O)/C(C#N)=C1/C(=O)N(Cc2ccccc2)c2ccccc21
Nonstructural protein 1
  IC50: 99.6 µM (active)
[6]
  IC50: 61 µM (active)

## Cc1ccc(S(=O)(=O)N[C@H]2C=C[C@H](CC(=O)N3CCC(Cc4ccccc4)CC3)O[C@H]2CO)cc1
[7]
  AC50: 69.4 µM (active)
[8]
  AC50: 34.3 µM (active)

## N=C1c2ccccc2CN1NC(=O)CC12CC3CC(CC(C3)C1)C2
[1]
  EC50: > 300 µM (not active)
[2]
  EC50: > 300 µM (not active)

## O=C1c2cccc3cccc(c23)C(=O)N1CCN1CCN(CC(O)COc2ccc3ccccc3c2)CC1 (stereo unspecified)
[9]
  EC50: 12 µM (active)
[10]
  EC50: 9.47 µM (active)
[5]
  AC50: 5.08 µM (active)
Bcl-2-related protein A1
  IC50: > 20 µM (inactive)
[3]
  IC50: 2.49 µM (active)
[4]
  IC50: 3.02 µM (active)

## Cc1cccc(OCCCCc2c(C)n[nH]c2C)c1
cells
  IC50: 9.67 µM (active)

## O=C(NNc1nc2cc3c(cc2s1)OCCO3)c1ccccc1
cells
  IC50: 48.3 µM (active)

## O=C(CCCCn1c(=O)c2ccccc2n(Cc2ccccc2)c1=O)NC1CCN(Cc2ccccc2)CC1
[11]
  EC50: 0.695 µM (active)
[12]
  EC50: > 60 µM (not active)
Bcl-2-related protein A1
  IC50: > 20 µM (inactive)
[3]
  IC50: 9.28 µM (active)
[4]
  IC50: 5.17 µM (active)

## COC(=O)c1ccc(-n2c(CCC(=O)O)ccc2-c2ccccc2)cc1
[1]
  EC50: > 300 µM (not active)
[2]
  EC50: > 300 µM (not active)

## COc1cccc(NC(=O)N(C)C[C@@H]2OCc3ccccc3-c3c(n(C)c4ccccc34)C(=O)N([C@@H](C)CO)C[C@@H]2C)c1
[7]
  AC50: < 0.26 µM (active)
[8]
  AC50: < 0.26 µM (active)

## CC1(C)Cc2c(sc(NC(=O)COc3ccc(Cl)cc3Cl)c2C(N)=O)C(C)(C)N1
[13]
  EC50: 17.3 µM (active)
[14]
  EC50: 18.7 µM (active)
[15]
  EC50: > 120 µM (not active)
Bcl-2-related protein A1
  IC50: > 20 µM (inactive)
[3]
  IC50: 4.55 µM (active)
[4]
  IC50: 2.86 µM (active)
